For 16 compounds, EC50 and IC50 results are on record in BindingDB's records for doi:10.7270/Q2CZ35ZF (Southern Research Institute, 2016).

The target of this experiment is Cystic fibrosis transmembrane conductance regulator (Homo sapiens, UniProt P13569).
Sequence of Cystic fibrosis transmembrane conductance regulator (P13569 whole entry): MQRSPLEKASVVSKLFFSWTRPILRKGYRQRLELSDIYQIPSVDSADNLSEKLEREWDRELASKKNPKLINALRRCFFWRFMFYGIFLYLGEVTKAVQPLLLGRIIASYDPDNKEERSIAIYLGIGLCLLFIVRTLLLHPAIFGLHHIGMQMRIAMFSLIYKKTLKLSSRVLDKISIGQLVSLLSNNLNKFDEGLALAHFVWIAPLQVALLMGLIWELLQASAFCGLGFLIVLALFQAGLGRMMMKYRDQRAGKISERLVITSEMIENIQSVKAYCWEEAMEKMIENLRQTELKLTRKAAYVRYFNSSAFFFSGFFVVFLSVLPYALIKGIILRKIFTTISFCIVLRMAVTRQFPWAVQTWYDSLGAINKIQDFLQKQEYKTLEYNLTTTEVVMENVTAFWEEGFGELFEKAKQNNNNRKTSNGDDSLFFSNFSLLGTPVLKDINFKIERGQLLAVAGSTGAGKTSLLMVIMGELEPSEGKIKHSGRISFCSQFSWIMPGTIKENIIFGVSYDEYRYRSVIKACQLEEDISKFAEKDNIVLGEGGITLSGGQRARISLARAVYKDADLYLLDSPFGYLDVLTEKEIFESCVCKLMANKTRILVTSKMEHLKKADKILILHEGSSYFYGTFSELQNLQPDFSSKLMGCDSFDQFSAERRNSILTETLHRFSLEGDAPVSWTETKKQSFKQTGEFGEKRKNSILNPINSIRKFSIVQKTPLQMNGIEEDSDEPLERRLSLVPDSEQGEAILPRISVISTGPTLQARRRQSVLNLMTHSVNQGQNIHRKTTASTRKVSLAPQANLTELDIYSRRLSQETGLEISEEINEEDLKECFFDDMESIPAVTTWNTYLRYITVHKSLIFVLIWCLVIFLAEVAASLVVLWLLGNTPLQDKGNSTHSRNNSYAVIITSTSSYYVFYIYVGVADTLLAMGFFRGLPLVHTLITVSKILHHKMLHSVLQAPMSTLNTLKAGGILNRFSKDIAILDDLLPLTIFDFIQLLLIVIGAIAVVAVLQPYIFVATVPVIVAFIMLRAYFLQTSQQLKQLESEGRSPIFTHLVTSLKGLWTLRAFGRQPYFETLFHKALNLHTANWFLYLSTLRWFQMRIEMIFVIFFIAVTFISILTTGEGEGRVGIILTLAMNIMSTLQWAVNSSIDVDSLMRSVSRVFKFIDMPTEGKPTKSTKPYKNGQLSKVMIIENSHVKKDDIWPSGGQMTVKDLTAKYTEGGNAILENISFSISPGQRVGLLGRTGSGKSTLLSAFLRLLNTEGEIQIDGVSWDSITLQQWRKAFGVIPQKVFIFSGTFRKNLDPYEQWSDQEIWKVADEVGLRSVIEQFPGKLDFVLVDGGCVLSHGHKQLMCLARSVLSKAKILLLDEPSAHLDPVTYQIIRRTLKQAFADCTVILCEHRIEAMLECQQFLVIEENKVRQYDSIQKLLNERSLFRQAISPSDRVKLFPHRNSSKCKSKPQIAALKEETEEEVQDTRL

The EC50 is the concentration that produces a half-maximal response. Lower therefore signals higher potency in that assay. A word on the IC50: it is the concentration that gives 50% inhibition. Low values mean greater potency in that assay, high ones weaker potency in that assay. `O=C(O)/C=C/c1ccc(Cn2ccnc2)cc1` registered an EC50 greater than 50 µM and an IC50 of 3.43 µM. With `CC(C)C[C@H](NC(=O)[C@H](Cc1ccccc1)NC(=O)c1cnccn1)B(O)O`, the EC50 was greater than 50 µM.

With `CN(C/C=C/C#CC(C)(C)C)Cc1cccc2ccccc12` [(6,6-Dimethyl-hept-2-en-4-ynyl)-methyl-naphthalen-1-ylmethyl-amine(Terbinafine)], the EC50 was greater than 50 µM and the IC50 was greater than 25 µM. For the compound `CO[C@H]1/C=C/O[C@@]2(C)Oc3c(C)c(O)c4c(c3C2=O)C(=O)/C(=C/NN2CCN(C)CC2)C(=C4O)NC(=O)/C(C)=C\C=C\C(C)[C@H](O)[C@@H](C)[C@@H](O)[C@@H](C)[C@@H](OC(C)=O)[C@@H]1C` (some centres undefined) [AB00052086_02], the EC50 is greater than 50 µM. Turning to `O=C(O)c1ccccc1-c1c2cc(Br)c(=O)cc-2oc2[c]([Hg])c(O)c(Br)cc12` [AB00053570_02], the EC50 is greater than 50 µM and the IC50 was greater than 50 µM. Consider `C[n+]1c2cc(N)ccc2cc2ccc(N)cc21` [AB00053810_11], for which the EC50 was greater than 50 µM and half-maximal inhibition (IC50) was put at 5.71 µM.

In turn, `CN1[C@@H]2CC[C@H]1CC(OC(=O)C(CO)c1ccccc1)C2` (some centres undefined) [AB00694549-11] returned an EC50 greater than 50 µM and an IC50 of 21.4 µM.

The compound `COc1cc(/C=C(/C#N)c2nc(C)cs2)cc2c1OCO2` [AB00984802-01] gave an EC50 greater than 67 µM and an IC50 of 21 µM. In the same order, the values of `O=S(=O)(Nc1ccc(-c2cn3cccnc3n2)cc1)c1ccc2c(c1)OCCO2` [AB01003479-01] are greater than 49 µM and greater than 49 µM. For `N#Cc1ccc(CN2CCc3cc([N+](=O)[O-])ccc32)c(F)c1` [AB01004372-01] the same measures were greater than 67 µM and greater than 67 µM.

Compound `CC(C)C[C@@H](NC(=O)[C@H](Cc1ccccc1)NC(=O)c1cnccn1)B(O)O` [AB01275474-01] gave an EC50 greater than 50 µM and an IC50 of 1.29 µM. In the same order, the values of `CCN(CC)CCOc1ccc2c(c1)C(=O)c1cc(OCCN(CC)CC)ccc1-2` [Amixin IC] are greater than 50 µM and 30.2 µM. Consider `CCCc1nc(C)c2c(=O)[nH]c(-c3cc(S(=O)(=O)N4CCN(CC)CC4)ccc3OCC)nn12` [CHEBI:46295], for which the EC50 was greater than 50 µM and the midpoint of inhibition, the IC50, lay at 0.14 µM.

Regarding `CO[C@H]1/C=C/O[C@@]2(C)Oc3c(C)c(O)c4c(c3C2=O)C(=O)/C(=C/NN2CCN(C)CC2)C(=C4O)NC(=O)/C(C)=C\C=C\[C@H](C)[C@H](O)[C@@H](C)[C@@H](O)[C@@H](C)[C@H](OC(C)=O)[C@@H]1C` [Rifampicin], the EC50 is greater than 50 µM. `O=C(CCCCCCC(=O)Nc1ccccc1)NO` [Zolinza] returned a concentration for a half-maximal effect (EC50) greater than 50 µM and an IC50 of 1.55 µM. In the same order, the values of `Nc1ccc2cc3ccc(N)cc3nc2c1` [acridine-3,6-diamine] are greater than 50 µM and 8.88 µM.
